Assay results taken from the NIST ThermoML archive (doi:10.1016/j.jct.2012.11.004).

Experiment: mn = molality of the nth substance listed, in mol/kg
Conditions: 101 kPa, Liquid; for mass density: Vibrating tube method; for speed of sound: Pulse-echo method

O=S(=O)([O-])C(F)(F)F.O=S(=O)([O-])C(F)(F)F.O=S(=O)([O-])C(F)(F)F.[Gd+3] [gadolinium (III) trifluoromethanesulfonate] + CN(C)C=O
Conditions	mass density, 283.15 K [kg/m3]	mass density, 293.15 K [kg/m3]	mass density, 298.15 K [kg/m3]	mass density, 303.15 K [kg/m3]	mass density, 313.15 K [kg/m3]	mass density, 323.15 K [kg/m3]	mass density, 333.15 K [kg/m3]	speed of sound, 298.15 K [m/s]
m1 = 0.01967	966.39	956.87	952.11	947.35	937.76	928.14	918.46	1455.8
m1 = 0.02703	969.53	960.01	955.25	950.48	940.9	931.28	921.61	1455.2
m1 = 0.03489	972.9	963.38	958.61	953.84	944.26	934.64	924.97	1454.5
m1 = 0.04531	977.36	967.83	963.07	958.3	948.72	939.1	929.43	1453.6
m1 = 0.05527	981.65	972.13	967.36	962.59	953.01	943.4	933.75	1452.8
m1 = 0.07019	988.17	978.65	973.89	969.1	959.52	949.91	940.24	1451.5
m1 = 0.09028	997.06	987.52	982.77	977.97	968.39	958.77	949.11	1449.4
m1 = 0.108	1004.97	995.43	990.66	985.88	976.29	966.68	957.02	1448
m1 = 0.1249	1012.67	1003.13	998.36	993.58	983.99	974.37	964.71	1446.3
m1 = 0.146	1022.39	1012.83	1008.05	1003.28	993.69	984.07	974.42	1443.5
m1 = 0.1634	1030.52	1020.96	1016.18	1011.39	1001.8	992.19	982.54	1441.7

O=S(=O)([O-])C(F)(F)F.O=S(=O)([O-])C(F)(F)F.O=S(=O)([O-])C(F)(F)F.[Lu+3] [lutetium(III) trifluoromethanesulfonate] + CN(C)C=O
Conditions	mass density, 283.15 K [kg/m3]	mass density, 293.15 K [kg/m3]	mass density, 298.15 K [kg/m3]	mass density, 303.15 K [kg/m3]	mass density, 313.15 K [kg/m3]	mass density, 323.15 K [kg/m3]	mass density, 333.15 K [kg/m3]	speed of sound, 298.15 K [m/s]
m1 = 0.02151	967.66	958.14	953.37	948.59	939.01	929.39	919.7	1455.4
m1 = 0.02883	970.96	961.44	956.67	951.89	942.3	932.66	922.98	1454.7
m1 = 0.03776	975	965.46	960.69	955.91	946.32	936.69	927	1454
m1 = 0.04886	980.05	970.51	965.73	960.95	951.35	941.71	932.02	1452.9
m1 = 0.0599	985.11	975.57	970.79	966.01	956.39	946.76	937.05	1451.8
m1 = 0.07513	992.17	982.63	977.84	973.05	963.43	953.77	944.07	1450.5
m1 = 0.09644	1002.19	992.62	987.83	983.03	973.4	963.72	954	1448
m1 = 0.1156	1011.35	1001.77	996.97	992.16	982.52	972.84	963.09	1445.9
m1 = 0.1337	1020.13	1010.53	1005.72	1000.91	991.25	981.57	971.83	1444.2
m1 = 0.1557	1031	1021.38	1016.56	1011.75	1002.08	992.37	982.6	1441.8
m1 = 0.1744	1040.3	1030.66	1025.84	1021.02	1011.33	1001.62	991.84	1439.7

O=S(=O)([O-])C(F)(F)F.O=S(=O)([O-])C(F)(F)F.O=S(=O)([O-])C(F)(F)F.[La+3] [lanthanum(III) trifluoromethanesulfonate] + CN(C)C=O
Conditions	mass density, 283.15 K [kg/m3]	mass density, 293.15 K [kg/m3]	mass density, 298.15 K [kg/m3]	mass density, 303.15 K [kg/m3]	mass density, 313.15 K [kg/m3]	mass density, 323.15 K [kg/m3]	mass density, 333.15 K [kg/m3]	speed of sound, 298.15 K [m/s]
m1 = 0.02162	966.85	957.33	952.56	947.79	938.21	928.58	918.9	1456
m1 = 0.02944	970.04	960.51	955.75	950.97	941.39	931.77	922.1	1455.5
m1 = 0.03946	974.16	964.64	959.87	955.09	945.5	935.87	926.19	1455
m1 = 0.04997	978.49	968.96	964.2	959.42	949.83	940.2	930.52	1454.3
m1 = 0.06066	–	–	–	–	–	–	–	1453.6
m1 = 0.0607	982.91	973.38	968.61	963.83	954.24	944.62	934.95	–
m1 = 0.07649	989.57	980.03	975.24	970.46	960.87	951.24	941.56	1452.5
m1 = 0.09777	998.57	989.02	984.24	979.46	969.86	960.23	950.54	1450.8
m1 = 0.1172	1006.98	997.41	992.63	987.84	978.22	968.57	958.88	1449.4
m1 = 0.136	1015.16	1005.59	1000.8	996	986.37	976.72	967.03	1448
m1 = 0.1591	1025.46	1015.87	1011.07	1006.26	996.63	986.96	977.26	1446.3
m1 = 0.1792	1034.5	1024.89	1020.09	1015.28	1005.64	995.97	986.26	1444.9
